Tests used:
p110-γ and p110-δ = conditions: versus the other isoforms; cited from earlier work
cancer patients = conditions: cited from earlier work
[1] = in vivo; cited from earlier work
[2] = Pharmacokinetics and tissue distribution (lung, plasma, heart, kidney) of co-solvent formulations, bolus intratracheal aerosol; assay type: in vivo, Sprague-Dawley rats; conditions: for Analyte in lung tissue, Mean: about 4 mg/kg pirfenidone IT bolus aerosol
Procedure: Selected formulations were prepared for pharmacokinetic analysis following aerosol delivery to rat lung. […] Formulations prepared for this study are outlined in Table 9. […] The sample was agitated until completely dissolved. […] Filtered samples were analyzed by HPLC.

[3] = system: relapsed/refractory multiple myeloma; conditions: cited from earlier work
PI3K = conditions: cited from earlier work
breast cancer stem cells = conditions: mouse, in vivo; cited from earlier work
[4] = system: EGFR mutation positive patients; conditions: cited from earlier work
[5] = system: sol elastase activity of CF sputum; conditions: direct treatment of unprocessed CF sputum; cited from earlier work
mTOR = mTOR (Homo sapiens, UniProt P42345); conditions: cited from earlier work

Molecule: Nc1nc(N)c2nc(-c3cccc(O)c3)c(-c3cccc(O)c3)nc2n1 [TG100-115]
- better potency against p110-γ and p110-δ (p110-γ and p110-δ): 5-10 fold

Molecule: N#CC1(c2ccc(NC(=O)c3cccnc3NCc3ccncc3)cc2)CCCC1 [Apatinib]
- dose limiting toxicities (cancer patients; 1000 mg/day): 3 of 3
- complete response (cancer patients; 65 cancer patients, Phase I/II): 1.54%
- partial response (cancer patients; 65 cancer patients, Phase I/II): 12.31%
- progressive disease (cancer patients; 65 cancer patients, Phase I/II): 20%
- stable disease (cancer patients; 65 cancer patients, Phase I/II): 66.15%
- well tolerated dose (cancer patients; daily for 28 days): below 750 mg/day
- maximum tolerated dose (cancer patients; human, in vivo): 850 mg/day

Molecule: O=C(O)c1ccc(=O)n(-c2ccccc2)c1 [5-carboxy-pirfenidone]
- share of urinary excretion being the primary metabolite [1]: 95%
- appearance of metabolite after direct aerosol administration to the lung ([2]; primary pirfenidone liver metabolite): delayed appearance

Molecule: CC(C)C[C@H](NC(=O)[C@H](Cc1ccccc1)NC(=O)c1cnccn1)B(O)O [Bortezomib]
- patients with peripheral neuropathy ([3]; human, in vivo): 30%
- time to peak concentrations ([3]; intravenous administration): about 30 minutes

Molecule: CC[C@@H](C(=O)[C@@H](C)[C@@H](O)[C@H](C)[C@@H]1O[C@@H]([C@@H](CC)C(=O)O)CC[C@@H]1C)[C@H]1O[C@]2(C=C[C@@H](O)[C@]3(CC[C@@](C)([C@H]4CC[C@](O)(CC)[C@H](C)O4)O3)O2)[C@H](C)C[C@@H]1C [Salinomycin]
- effectiveness relative to paclitaxel (breast cancer stem cells): at least 100 times

Molecule: C#Cc1cccc(Nc2ncnc3cc(OCCOC)c(OCCOC)cc23)c1 [erlotinib]
- response rate ([4]; EGFR mutation positive patients): approximately 60%
- time to development of resistance from the start of treatment ([4]; human, in vivo): 8-12 months

Molecule: O=C(O)c1ccc(=O)n(-c2ccccc2)c1
- Analyte in lung tissue, Mean ([2]; 0 MIN): 0.00 μg/gram
- Analyte in lung tissue, Mean ([2]; Group 1, 0.0333 hr): 0.12 μg/gram
- Analyte in lung tissue, Mean ([2]; Group 1, 0.0667 hr): 0.13 μg/gram
- Analyte in lung tissue, Mean ([2]; Group 1, 0.1 hr): 0.48 μg/gram
- Analyte in lung tissue, Mean ([2]; Group 1, 0.167 hr): 0.49 μg/gram
- Analyte in lung tissue, Mean ([2]; Group 1, 0.333 hr): 0.96 μg/gram
- Analyte in lung tissue, Mean ([2]; Group 1, 0.667 hr): 0.96 μg/gram
- Analyte in lung tissue, Mean ([2]; Group 1, 1 hr): 0.73 μg/gram
- Analyte in lung tissue, Mean ([2]; Group 1, 2 hr): 0.21 μg/gram
- Analyte in lung tissue, Mean ([2]; Group 1, 2.5 hr): 0.10 μg/gram
- Analyte in lung tissue, Mean ([2]; Group 1, […]): 0.48 μg/gram
- Analyte in lung tissue, Mean ([2]; Group 3, 0.0333 hr): 0.05 μg/gram
- Analyte in lung tissue, Mean ([2]; Group 3, 0.0667 hr): 0.36 μg/gram
- Analyte in lung tissue, Mean ([2]; Group 3, 0.1 hr): 0.55 μg/gram
- Analyte in lung tissue, Mean ([2]; Group 3, 0.167 hr): 0.86 μg/gram
- Analyte in lung tissue, Mean ([2]; Group 3, 0.333 hr): 1.09 μg/gram
- Analyte in lung tissue, Mean ([2]; Group 3, 0.667 hr): 0.81 μg/gram
- Analyte in lung tissue, Mean ([2]; Group 3, 1 hr): 0.70 μg/gram
- Analyte in lung tissue, Mean ([2]; Group 3, 2 hr): 0.32 μg/gram
- Analyte in lung tissue, Mean ([2]; Group 3, 2.5 hr): 0.14 μg/gram
- Analyte in lung tissue, Mean ([2]; Group 3, […]): 0.52 μg/gram
- Analyte in lung tissue, Mean ([2]; Group 5, 0.0333 hr): 0.17 μg/gram
- Analyte in lung tissue, Mean ([2]; Group 5, 0.0667 hr): 0.42 μg/gram
- Analyte in lung tissue, Mean ([2]; Group 5, 0.1 hr): 0.35 μg/gram
- Analyte in lung tissue, Mean ([2]; Group 5, 0.167 hr): 0.53 μg/gram
- Analyte in lung tissue, Mean ([2]; Group 5, 0.333 hr): 1.32 μg/gram
- Analyte in lung tissue, Mean ([2]; Group 5, 0.667 hr): 0.96 μg/gram
- Analyte in lung tissue, Mean ([2]; Group 5, 1 hr): 0.75 μg/gram
- Analyte in lung tissue, Mean ([2]; Group 5, 2 hr): 0.18 μg/gram
- Analyte in lung tissue, Mean ([2]; Group 5, 2.5 hr): 0.10 μg/gram
- Analyte in lung tissue, Mean ([2]; Group 5, […]): 0.45 μg/gram
- Analyte in lung tissue, Mean ([2]; Group 6, 0.0333 hr): 0.17 μg/gram
- Analyte in lung tissue, Mean ([2]; Group 6, 0.0667 hr): 0.43 μg/gram
- Analyte in lung tissue, Mean ([2]; Group 6, 0.1 hr): 0.37 μg/gram
- Analyte in lung tissue, Mean ([2]; Group 6, 0.167 hr): 0.64 μg/gram
- Analyte in lung tissue, Mean ([2]; Group 6, 0.333 hr): 0.94 μg/gram
- Analyte in lung tissue, Mean ([2]; Group 6, 0.667 hr): 0.92 μg/gram
- Analyte in lung tissue, Mean ([2]; Group 6, 1 hr): 0.78 μg/gram
- Analyte in lung tissue, Mean ([2]; Group 6, 2 hr): 0.24 μg/gram
- Analyte in lung tissue, Mean ([2]; Group 6, 2.5 hr): 0.14 μg/gram
- Analyte in lung tissue, Mean ([2]; Group 6, […]): 0.43 μg/gram

Molecule: DNase
- increase of elastase activity [5]: 190%

Molecule: Cc1c(CN2CCN(S(C)(=O)=O)CC2)sc2c(N3CCOCC3)nc(-c3cnc(N)nc3)nc12 [GNE-477]
- IC50 (mTOR): 21 nM

B1: reduced rhTrx: stable reduced form of recombinant human thioredoxin (protein, UniProt P10599 2-105, looked up)
Thioredoxin: VKQIESKTAFQEALDAAGDKLVVVDFSATWCGPCKMIKPFFHSLSEKYSNVIFLEVDVDDCQDVASECEVKCMPTFQFFKKGQKVGEFSGANKEKLEATINELV
modifications: reduced form
- increase of elastase activity [5]: 60%

Source: US11452718B2 (AVALYN PHARMA INC., priority 2012, dated 2022)
